These results are taken from ChEMBL document CHEMBL1201862, “PubChem BioAssay data set” (2004).

Test [1] has as its target Sphingosine 1-phosphate receptor 3 (Homo sapiens, UniProt Q99500). The experiment in a line: Late-stage fluorescence-based dose-response cell-based counterscreen assay to identify agonists of the Sphingosine 1-Phosphate Receptor 4 (S1P4): Sphingosine 1-Phosphate Receptor 3 (S1P3) agonist assay Set 2. The test is classed as functional. For orientation: A counterscreen serves to expose hits that act by an unwanted route or on another target.

In test [2] the target is Sphingosine 1-phosphate receptor 1 (Homo sapiens, UniProt P21453). The experiment in a line: Late-stage fluorescence-based dose-response cell-based counterscreen assay to identify agonists of the Sphingosine 1-Phosphate Receptor 4 (S1P4): Sphingosine 1-Phosphate Receptor 1 (S1P1) agonist assay Set 2. The test is classed as functional.
The target of test [3] is Sphingosine 1-phosphate receptor 2 (Homo sapiens, UniProt O95136). Description: S1P2 receptor agonists, human, late-stage follow-up, counter-screen for S1P4 agonist project, cell-based, fluorescence, set 2 (AID 504873). The test is classed as functional.
For test [4], the target named is Sphingosine 1-phosphate receptor 5 (Homo sapiens, UniProt Q9H228). Description: S1P5 receptor agonists, human, late-stage follow-up, counter-screen for S1P4 agonist project, cell-based, fluorescence, set 2 (AID 504867). The class given is functional.
A further test has as its system CHO. Description: cytotoxicity in TLR9-MyD88 CHO cells, dose response, cytotoxicity control for TLR9-MyD88 binding inhibitor project, cell-based, luminescence (AID 588339).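 Further: CHO cells stably coexpressing TLR9 and MyD88 fusions from primary screen; compound exposure lasted 48 hours before viability readout.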 The test is classed as functional, hamster. The note with it: Cricetulus griseus.
The next test has as its target Beta Lactamase (Pseudomonas aeruginosa, UniProt Q932Y6). The experiment in a line: beta-lactamase reporter inhibitor potency, dose response, artefact control for TLR9-MyD88 binding inhibitor project, BLA reporter cells, FRET fluorescence (AID 588341).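 Further: cell based assay in CHO-K1 cells stably expressing beta-lactamase.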 The test is classed as cell-based.
The nature of test [5]: Luminescence Cell-Based Dose Retest to Confirm Inhibitors of Cancer Stem Cells. [Related pubchem assays (depositor defined):AID2717, AID2721]. The test is classed as functional. The conditions noted are these: Homo sapiens.
Test [6] addresses DNA dC->dU-editing enzyme APOBEC-3G (Homo sapiens, UniProt Q9HC16). Description: APOBEC3G deaminase inhibitors, SAR follow-up, biochemical, fluorescence, single-stranded DNA substrate (AID 602136). The test is classed as functional. The conditions noted are these: read-out: IC50_Mean.
Test [7] addresses DNA dC->dU-editing enzyme APOBEC-3A (Homo sapiens, UniProt P31941). The experiment in a line: SAR analysis of small molecule inhibitors of APOBEC3A DNA Deaminase via a fluorescence-based single-stranded DNA deaminase assay. The class given is functional. The note with it: read-out: IC50_Mean.
A further test concerns the target Wee1-like protein kinase (Homo sapiens, UniProt P30291). Description: Navigating the Kinome. Panel member name: WEE1. The test is classed as functional.
Test [8] deals with Cell division cycle 7-related protein kinase (Homo sapiens, UniProt O00311). The test is classed as functional.
Test [9] has as its target T1, Histone-lysine N-methyltransferase NSD2 (Homo sapiens, UniProt O96028).
T1 sequence (O96028 whole entry): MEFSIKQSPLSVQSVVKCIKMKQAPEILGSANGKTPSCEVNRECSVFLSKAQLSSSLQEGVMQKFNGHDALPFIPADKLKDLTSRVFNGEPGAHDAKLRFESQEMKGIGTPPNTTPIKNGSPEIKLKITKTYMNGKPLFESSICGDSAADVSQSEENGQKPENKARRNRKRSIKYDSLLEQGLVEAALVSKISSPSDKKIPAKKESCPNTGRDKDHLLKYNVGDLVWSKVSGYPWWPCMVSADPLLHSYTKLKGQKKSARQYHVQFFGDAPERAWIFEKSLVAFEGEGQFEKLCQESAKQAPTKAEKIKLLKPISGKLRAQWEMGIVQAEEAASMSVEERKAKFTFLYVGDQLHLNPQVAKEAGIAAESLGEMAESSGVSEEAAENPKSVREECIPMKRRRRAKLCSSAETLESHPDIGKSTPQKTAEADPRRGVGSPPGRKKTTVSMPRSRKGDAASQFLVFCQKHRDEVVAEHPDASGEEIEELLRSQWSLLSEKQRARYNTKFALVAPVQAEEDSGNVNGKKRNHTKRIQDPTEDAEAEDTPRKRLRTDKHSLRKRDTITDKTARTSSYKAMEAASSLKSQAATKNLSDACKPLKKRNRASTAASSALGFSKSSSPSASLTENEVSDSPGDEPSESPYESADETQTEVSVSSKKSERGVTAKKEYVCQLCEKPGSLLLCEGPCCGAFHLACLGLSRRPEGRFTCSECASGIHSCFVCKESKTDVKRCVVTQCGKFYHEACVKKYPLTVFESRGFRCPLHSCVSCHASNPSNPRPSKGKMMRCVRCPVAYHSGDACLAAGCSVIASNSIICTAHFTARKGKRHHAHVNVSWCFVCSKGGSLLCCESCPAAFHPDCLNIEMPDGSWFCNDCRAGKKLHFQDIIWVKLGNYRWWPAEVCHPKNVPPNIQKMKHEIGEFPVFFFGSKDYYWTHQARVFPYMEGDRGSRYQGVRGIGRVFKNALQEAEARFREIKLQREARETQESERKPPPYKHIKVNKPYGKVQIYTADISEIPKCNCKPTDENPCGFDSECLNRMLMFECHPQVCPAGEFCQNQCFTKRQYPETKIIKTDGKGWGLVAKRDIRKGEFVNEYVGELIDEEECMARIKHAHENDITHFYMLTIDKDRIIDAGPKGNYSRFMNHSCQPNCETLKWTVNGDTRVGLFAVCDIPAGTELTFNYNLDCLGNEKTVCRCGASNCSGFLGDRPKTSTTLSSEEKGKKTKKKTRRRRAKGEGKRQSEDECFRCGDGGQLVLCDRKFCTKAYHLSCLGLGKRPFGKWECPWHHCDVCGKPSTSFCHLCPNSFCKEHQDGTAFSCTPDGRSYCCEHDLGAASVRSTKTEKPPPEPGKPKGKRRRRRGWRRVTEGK
The class given is biochemical.

The target in test [10] is T2, Carboxy-terminal domain RNA polymerase II polypeptide A small phosphatase 1 (Homo sapiens, UniProt Q9GZU7).
T2 sequence (Q9GZU7 whole entry): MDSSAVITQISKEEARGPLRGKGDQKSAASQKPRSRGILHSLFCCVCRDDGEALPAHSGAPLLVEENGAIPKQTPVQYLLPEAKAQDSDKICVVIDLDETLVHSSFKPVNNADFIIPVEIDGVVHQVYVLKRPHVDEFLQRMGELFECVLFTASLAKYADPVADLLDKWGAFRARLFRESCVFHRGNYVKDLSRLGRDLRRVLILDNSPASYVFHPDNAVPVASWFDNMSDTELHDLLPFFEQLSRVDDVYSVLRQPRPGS
The experiment in a line: inhibitors of CTDSP1, concentration-response testing, biochemical assay, absorbance-based, actives from ultra-high-throughput screening (AID 540297). The class given is functional.

Test [11] concerns the target T3, Beta-adrenergic receptor kinase 1 (Homo sapiens, UniProt P25098). The experiment in a line: GRK2 inhibitors displacing RNA aptamer, dose response, biochemical, flow cytometry beads, FAM-aptamer, powder set 1 (AID 588720). For orientation: In flow cytometry, cells or beads pass a laser one at a time.
Another test has as its target T4, Caspase-6 (Homo sapiens, UniProt P55212).
T4 sequence (P55212 whole entry): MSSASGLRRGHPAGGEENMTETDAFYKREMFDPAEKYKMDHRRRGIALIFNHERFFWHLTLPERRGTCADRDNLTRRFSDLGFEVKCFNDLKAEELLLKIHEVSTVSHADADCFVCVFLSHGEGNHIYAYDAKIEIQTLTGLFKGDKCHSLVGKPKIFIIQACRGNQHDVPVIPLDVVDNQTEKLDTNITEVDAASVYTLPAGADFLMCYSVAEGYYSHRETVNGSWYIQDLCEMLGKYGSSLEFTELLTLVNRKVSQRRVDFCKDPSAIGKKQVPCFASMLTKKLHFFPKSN
Description: human caspase-6 inhibitors, dose response, biochemical, VEID-R110 fluorescence, cherry-pick (AID 720632).

In test [12] the target is T3, Beta-adrenergic receptor kinase 1. Description: aptamer displacement from bead-bound GRK2 – biochemical, cherry pick 1, bead flow cytometry, dose response (AID 504500).

Structures are written as SMILES. The source made the active and inactive calls. Unless noted, the calls are words filed in the database; no cut-off is given here. A value given as a limit tells only on which side of the number the result lay.

T3 sequence (P25098 whole entry): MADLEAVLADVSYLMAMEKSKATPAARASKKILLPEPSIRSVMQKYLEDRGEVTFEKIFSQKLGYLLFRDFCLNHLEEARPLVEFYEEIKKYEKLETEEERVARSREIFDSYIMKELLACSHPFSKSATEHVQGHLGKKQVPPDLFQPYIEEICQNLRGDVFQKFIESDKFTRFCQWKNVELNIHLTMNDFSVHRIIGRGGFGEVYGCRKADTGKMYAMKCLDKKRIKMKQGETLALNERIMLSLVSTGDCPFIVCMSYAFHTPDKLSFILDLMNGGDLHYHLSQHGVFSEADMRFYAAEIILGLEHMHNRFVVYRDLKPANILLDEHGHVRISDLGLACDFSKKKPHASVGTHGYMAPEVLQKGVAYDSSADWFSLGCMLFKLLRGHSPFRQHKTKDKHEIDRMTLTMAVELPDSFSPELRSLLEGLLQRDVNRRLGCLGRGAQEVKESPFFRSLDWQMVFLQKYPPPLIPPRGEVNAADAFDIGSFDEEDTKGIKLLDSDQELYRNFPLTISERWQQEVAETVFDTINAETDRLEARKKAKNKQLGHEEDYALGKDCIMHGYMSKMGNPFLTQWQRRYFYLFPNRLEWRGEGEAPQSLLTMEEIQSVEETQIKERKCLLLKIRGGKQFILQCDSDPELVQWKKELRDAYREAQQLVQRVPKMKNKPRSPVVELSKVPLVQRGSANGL
Sequence of Sphingosine 1-phosphate receptor 5 (Q9H228 whole entry, the tested form may be a part): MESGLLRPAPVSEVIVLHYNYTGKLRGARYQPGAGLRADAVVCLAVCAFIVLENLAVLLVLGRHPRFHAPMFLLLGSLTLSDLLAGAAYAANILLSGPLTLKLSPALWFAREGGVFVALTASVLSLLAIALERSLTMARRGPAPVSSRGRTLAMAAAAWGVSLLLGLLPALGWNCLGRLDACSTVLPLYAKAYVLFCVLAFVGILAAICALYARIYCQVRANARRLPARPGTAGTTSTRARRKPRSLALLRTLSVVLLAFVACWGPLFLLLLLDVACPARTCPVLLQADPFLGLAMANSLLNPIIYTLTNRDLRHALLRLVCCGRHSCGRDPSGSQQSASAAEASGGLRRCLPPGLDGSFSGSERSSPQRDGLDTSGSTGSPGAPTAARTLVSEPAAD
Sequence of DNA dC->dU-editing enzyme APOBEC-3G (Q9HC16 whole entry): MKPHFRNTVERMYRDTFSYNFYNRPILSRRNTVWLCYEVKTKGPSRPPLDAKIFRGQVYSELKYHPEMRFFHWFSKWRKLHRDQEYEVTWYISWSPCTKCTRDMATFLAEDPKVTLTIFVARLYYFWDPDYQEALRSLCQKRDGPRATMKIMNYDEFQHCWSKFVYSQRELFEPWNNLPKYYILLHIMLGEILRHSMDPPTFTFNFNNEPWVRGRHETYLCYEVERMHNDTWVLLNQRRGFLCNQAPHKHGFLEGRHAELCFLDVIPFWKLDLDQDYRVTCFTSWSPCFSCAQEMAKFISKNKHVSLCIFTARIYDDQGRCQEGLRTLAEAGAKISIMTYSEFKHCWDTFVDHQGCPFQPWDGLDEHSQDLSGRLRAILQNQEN
Sequence of Wee1-like protein kinase (P30291 whole entry): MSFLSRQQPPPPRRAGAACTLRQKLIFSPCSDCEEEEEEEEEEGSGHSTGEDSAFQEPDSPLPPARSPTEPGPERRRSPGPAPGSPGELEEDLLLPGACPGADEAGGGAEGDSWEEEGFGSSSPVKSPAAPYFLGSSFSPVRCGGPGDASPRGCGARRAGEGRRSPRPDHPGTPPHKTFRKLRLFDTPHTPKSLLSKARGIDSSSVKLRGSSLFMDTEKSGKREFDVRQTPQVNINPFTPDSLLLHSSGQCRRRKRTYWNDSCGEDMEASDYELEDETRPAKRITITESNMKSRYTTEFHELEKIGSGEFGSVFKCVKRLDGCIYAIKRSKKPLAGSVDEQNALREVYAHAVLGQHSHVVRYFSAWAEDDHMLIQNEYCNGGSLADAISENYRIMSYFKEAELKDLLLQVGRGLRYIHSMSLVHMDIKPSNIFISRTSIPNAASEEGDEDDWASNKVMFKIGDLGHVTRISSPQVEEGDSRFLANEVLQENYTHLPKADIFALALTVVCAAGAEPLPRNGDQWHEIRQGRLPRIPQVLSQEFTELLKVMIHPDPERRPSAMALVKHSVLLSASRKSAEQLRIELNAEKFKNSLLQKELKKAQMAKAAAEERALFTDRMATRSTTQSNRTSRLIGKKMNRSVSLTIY
Sequence of DNA dC->dU-editing enzyme APOBEC-3A (P31941 whole entry): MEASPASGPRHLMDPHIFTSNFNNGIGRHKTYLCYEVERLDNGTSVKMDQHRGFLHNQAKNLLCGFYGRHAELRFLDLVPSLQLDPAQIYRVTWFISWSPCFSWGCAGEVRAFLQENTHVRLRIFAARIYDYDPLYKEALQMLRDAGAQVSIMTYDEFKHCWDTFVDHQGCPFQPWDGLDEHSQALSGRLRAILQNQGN
Sequence of Beta Lactamase (Q932Y6 whole entry): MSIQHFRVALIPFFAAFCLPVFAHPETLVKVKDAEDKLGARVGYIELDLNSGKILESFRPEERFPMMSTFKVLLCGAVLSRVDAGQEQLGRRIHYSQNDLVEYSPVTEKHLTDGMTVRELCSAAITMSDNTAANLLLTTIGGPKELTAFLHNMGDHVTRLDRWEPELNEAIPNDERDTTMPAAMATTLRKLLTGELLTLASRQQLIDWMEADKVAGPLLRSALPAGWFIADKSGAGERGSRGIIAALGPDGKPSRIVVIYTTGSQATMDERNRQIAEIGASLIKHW
Sequence of Cell division cycle 7-related protein kinase (O00311 whole entry): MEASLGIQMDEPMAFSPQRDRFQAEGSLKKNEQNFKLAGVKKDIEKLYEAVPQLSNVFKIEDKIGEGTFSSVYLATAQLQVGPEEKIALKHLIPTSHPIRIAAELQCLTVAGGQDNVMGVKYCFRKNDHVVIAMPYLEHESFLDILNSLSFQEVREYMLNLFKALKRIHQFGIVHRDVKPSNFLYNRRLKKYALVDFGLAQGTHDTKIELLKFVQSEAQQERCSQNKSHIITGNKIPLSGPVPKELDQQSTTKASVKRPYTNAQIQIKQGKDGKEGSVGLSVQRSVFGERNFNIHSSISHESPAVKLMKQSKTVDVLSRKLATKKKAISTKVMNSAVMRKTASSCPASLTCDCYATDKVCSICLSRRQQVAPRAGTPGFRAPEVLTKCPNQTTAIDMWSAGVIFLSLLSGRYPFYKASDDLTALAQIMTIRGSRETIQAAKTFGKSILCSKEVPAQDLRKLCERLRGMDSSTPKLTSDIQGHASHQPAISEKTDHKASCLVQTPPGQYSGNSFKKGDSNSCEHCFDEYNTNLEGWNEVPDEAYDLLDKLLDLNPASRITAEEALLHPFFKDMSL
Sequence of Sphingosine 1-phosphate receptor 1 (P21453 whole entry): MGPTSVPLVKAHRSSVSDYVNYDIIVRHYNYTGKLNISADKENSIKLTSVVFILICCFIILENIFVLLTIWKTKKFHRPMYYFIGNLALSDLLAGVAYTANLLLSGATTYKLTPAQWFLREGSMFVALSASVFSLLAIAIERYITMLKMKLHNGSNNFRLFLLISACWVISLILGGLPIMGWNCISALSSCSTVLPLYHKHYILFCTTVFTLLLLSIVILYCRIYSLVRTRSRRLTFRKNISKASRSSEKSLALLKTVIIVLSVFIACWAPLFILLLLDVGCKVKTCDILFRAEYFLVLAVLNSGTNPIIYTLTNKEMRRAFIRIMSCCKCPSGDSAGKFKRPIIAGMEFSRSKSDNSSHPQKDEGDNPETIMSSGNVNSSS
Sequence of Sphingosine 1-phosphate receptor 2 (O95136 whole entry): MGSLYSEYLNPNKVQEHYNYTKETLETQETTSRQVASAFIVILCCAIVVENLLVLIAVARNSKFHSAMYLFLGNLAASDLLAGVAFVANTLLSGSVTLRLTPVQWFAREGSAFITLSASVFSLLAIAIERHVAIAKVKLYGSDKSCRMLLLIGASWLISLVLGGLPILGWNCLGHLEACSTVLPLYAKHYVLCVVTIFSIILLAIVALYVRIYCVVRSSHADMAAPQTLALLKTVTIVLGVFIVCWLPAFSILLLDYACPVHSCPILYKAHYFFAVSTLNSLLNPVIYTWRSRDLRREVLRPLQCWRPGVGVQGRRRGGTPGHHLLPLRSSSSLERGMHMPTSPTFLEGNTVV
Sequence of Sphingosine 1-phosphate receptor 3 (Q99500 whole entry): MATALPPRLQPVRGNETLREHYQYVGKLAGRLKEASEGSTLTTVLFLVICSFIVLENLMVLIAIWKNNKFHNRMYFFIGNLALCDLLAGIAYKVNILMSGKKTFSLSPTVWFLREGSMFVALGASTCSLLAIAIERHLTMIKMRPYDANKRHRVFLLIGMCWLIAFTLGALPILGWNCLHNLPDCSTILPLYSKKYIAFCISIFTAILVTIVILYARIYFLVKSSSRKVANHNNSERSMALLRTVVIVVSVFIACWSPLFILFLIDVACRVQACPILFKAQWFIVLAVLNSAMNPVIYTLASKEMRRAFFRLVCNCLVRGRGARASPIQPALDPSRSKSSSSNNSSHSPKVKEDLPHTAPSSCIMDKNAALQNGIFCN

The term EC50 denotes the concentration giving half of the maximal effect. With `CC/N=C1\S/C(=C\c2cc(C)n(-c3ccccc3F)c2C)C(=O)N1CC`, the EC50 in test [1], in test [2], in test [3] and in [4] was > 25 µM (inactive) in each case.
The term AC50 denotes the concentration at which the activity in the assay is half-maximal. `c1cc(SC2CCCCC2)cc(-c2nc3cnccn3c2NC2CCCCC2)c1`: the values for the IC50 in the test on CHO and at Beta Lactamase were 23.4 µM (inactive) and 4.83 µM (active), respectively. Further, the AC50 in test [5] was 1.58 µM (active).
Take `CCOc1nc(Nc2ccccc2)nc(Nc2ccc(-c3nc4ccccc4o3)cc2)n1`: the IC50 in test [6] and in test [7] was > 99 µM (inactive) throughout.
What is called Ki is the equilibrium dissociation constant of an inhibitor or competing ligand from its target. Turning to `Fc1ccc(Nc2ncnc(Nc3ccc4cn[nH]c4c3)n2)cc1`, the figures for the Ki (on Wee1-like protein kinase; in test [8]) were > 3.16 µM (inactive) and 0.0501 µM (active), respectively.
As to `O=C(O)Cc1ccc(-n2cccc2)cc1`, the AC50 is 11.9 µM (active) in test [9] and 2.7 µM (active) at Caspase-6. The IC50 in test [10] is 4.01 µM (active). Besides, the EC50 in [11] was 3.21 µM (active); in [12], 36.2 µM (inactive).
